10 molecules from patent US7732475B2, “Histone deacetylase inhibitors” (Takeda San Diego, Inc., priority 2005, dated 2010) can be followed below.

The target of the experiment is HDAC2 (Homo sapiens, UniProt Q92769). Description: HDAC2 fluorescence inhibition assay (tBoc-Lys(Ac)-AMC).
Chain of HDAC2 (Q92769 with tags, fused parts or gaps): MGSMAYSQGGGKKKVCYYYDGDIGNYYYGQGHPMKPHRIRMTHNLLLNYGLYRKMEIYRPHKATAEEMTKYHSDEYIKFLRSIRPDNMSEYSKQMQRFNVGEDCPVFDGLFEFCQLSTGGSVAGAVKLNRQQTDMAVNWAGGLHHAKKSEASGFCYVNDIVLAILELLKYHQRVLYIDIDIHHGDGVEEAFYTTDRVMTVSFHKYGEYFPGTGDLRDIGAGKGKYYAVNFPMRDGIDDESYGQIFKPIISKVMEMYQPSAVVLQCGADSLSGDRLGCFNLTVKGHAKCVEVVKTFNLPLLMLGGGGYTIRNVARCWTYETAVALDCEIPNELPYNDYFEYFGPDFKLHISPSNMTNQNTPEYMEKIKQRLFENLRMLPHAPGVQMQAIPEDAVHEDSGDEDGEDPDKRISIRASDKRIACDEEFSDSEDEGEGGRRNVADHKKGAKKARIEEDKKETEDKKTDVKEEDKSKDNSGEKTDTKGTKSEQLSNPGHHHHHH
`CCCNC(=O)c1cnn(Cc2ccc(C(=O)Nc3ccccc3N)cc2)c1` [Example 149, 1-(4-(2-aminophenylcarbamoyl)benzyl)-N-propyl-1H-pyrazole-4-carboxamide] had an IC50 not above 50 nM.

`CC(C)CNC(=O)c1cnn(Cc2ccc(C(=O)Nc3ccccc3N)cc2)c1` [Example 150, 1-(4-(2-aminophenylcarbamoyl)benzyl)-N-isobutyl-1H-pyrazole-4-carboxamide] came in with an IC50 not above 50 nM.

In the case of `COCCNC(=O)c1cnn(Cc2ccc(C(=O)Nc3ccccc3N)cc2)c1` [Example 151, 1-(4-(2-aminophenylcarbamoyl)benzyl)-N-(2-methoxyethyl)-1H-pyrazole-4-carboxamide], the IC50 was 50 to 100 nM.

`COCCCNC(=O)c1cnn(Cc2ccc(C(=O)Nc3ccccc3N)cc2)c1` [Example 152, 1-(4-(2-aminophenylcarbamoyl)benzyl)-N-(3-methoxypropyl)-1H-pyrazole-4-carboxamide] returned a half-inhibitory concentration (IC50) not above 50 nM.

In turn, `Nc1ccccc1NC(=O)c1ccc(Cn2cc(C(=O)NCCCO)cn2)cc1` [Example 153, 1-(4-(2-aminophenylcarbamoyl)benzyl)-N-(3-hydroxypropyl)-1H-pyrazole-4-carboxamide] had an IC50 not above 50 nM.

Consider `Nc1ccccc1NC(=O)c1ccc(Cn2cc(C(=O)NCCCN3CCOCC3)cn2)cc1` [Example 154, 1-(4-(2-aminophenylcarbamoyl)benzyl)-N-(3-morpholinopropyl)-1H-pyrazole-4-carboxamide], for which the IC50 was not above 50 nM.

Molecule `Nc1ccccc1NC(=O)c1ccc(Cn2cc(C(=O)NCCN3CCCCC3)cn2)cc1` [Example 155, 1-(4-(2-aminophenylcarbamoyl)benzyl)-N-(2-(piperidin-1-yl)ethyl)-1H-pyrazole-4-carboxamide] registered an IC50 not above 50 nM.

Regarding `CN1CCN(CCCNC(=O)c2cnn(Cc3ccc(C(=O)Nc4ccccc4N)cc3)c2)CC1` [Example 156, 1-(4-(2-aminophenylcarbamoyl)benzyl)-N-(3-(4-methylpiperazin-1-yl)propyl)-1H-pyrazole-4-carboxamide], the IC50 was in the range of 50 to 100 nM.

Turning to `Nc1ccccc1NC(=O)c1ccc(Cn2ccc3cccnc32)cc1` [Example 157, 4-((1H-Pyrrolo[2,3-b]pyridin-1-yl)methyl)-N-(2-aminophenyl)benzamide], the IC50 was 100 to 500 nM.

Take `Nc1ccccc1NC(=O)c1ccc(Cc2c[nH]c3ccccc23)cc1` [Example 158, 4-((1H-Indol-3-yl)methyl)-N-(2-aminophenyl)benzamide]: the IC50 was 50 to 100 nM.
